Values quoted from earlier work in publication PMC4877185 (Molecular imaging and biology : MIB : the official …, 2016).
pEC50: −log10 of the molar value.

Columns and labels:
[1] = tested on: GLP-1R; conditions: read-out: cAMP EC50; unlabeled conjugates, GLP-1R agonist
[2] = tested on: GLP-1R; conditions: greater affinity than truncated antagonist exendin-(9–39)-amide

## DO3A-VS-Cys^40-exendin-4
[1]
  pEC50: 10.57

## Exendin-4
[2]
  Binding affinity for GLP-1R relative to exendin-(9–39)-amide: ~10 fold
